Measured values taken from US10342812B2, “Glycan-based drugs, therapies and biomarkers” (priority 2008, dated 2019).

Assays:
rhesus rotavirus (RRV) [1] = assay: Prevention of rotavirus infection in mouse pups with Neu5Ac, methionine, formula-1 (5.7); assay type: in vivo; conditions: for Not sick (number) / Sick Rate(%): 20 μl oral at P1, RRV at P2; for Sick (number): 20 μl oral at P1, RRV at P2, 3 weeks; for Odds Ratio: vs saline
rhesus rotavirus (RRV) [2] = assay: Prevention of rotavirus infection in mouse pups with methionine-Zn (8.1); assay type: in vivo
[3] = system: A/PR/8/34(H1N1) influenza virus strain; assay: Treatment of influenza infection of newborn mice (15.2); assay type: in vivo, mouse; conditions: virus at P5, i.p. treatment at day 2, 3, 4 and 5; kept 10 days
Experimental: Four groups of newborn bulb/c pups were inoculated at day 5 (P5) via nasal and oral administration of 20 μl (microliter) of the A/PR/8/34(H1N1) influenza virus strain (titer: 1:256, diluted 200 times with saline); and were treated at day 2, 3, 4 and 5 via intraperitoneal injection with 100 μl of saline containing 1) saline alone (n=10); 2) 150 microgram of Neu5AcMe; 3) 30 μl of 2% diethyl disulfide plus 200 μg of the Neu5AcMe (n=10); and 4) 30 μl of 2% diethyl disulfide plus 200 μg of the Neu5Ac (n=10). Mice were kept for 10 days after treatment.

[4] = assay type: in vivo, chicken
[5] = system: 2009H1N1 influenza virus (California strain); assay type: in vivo, chicken
[6] = pretreated at E16, virus next day

CSCC[C@H](N)C(=O)O [Metnionine, Methionine]
Not sick (number) (rhesus rotavirus (RRV) [1]): 9
Sick Rate(%) (rhesus rotavirus (RRV) [1]): 25.0%
Sick (number) (rhesus rotavirus (RRV) [1]): 3
Odds Ratio (rhesus rotavirus (RRV) [1]): 0.07

Methionine-Zinc (Zn) complex [Metnionine-Zn]
Not sick (number) (rhesus rotavirus (RRV) [2]; 20 μl oral at P1, RRV at P2): 6
Sick Rate(%) (rhesus rotavirus (RRV) [2]; 20 μl oral at P1, RRV at P2): 14%
Sick (number) (rhesus rotavirus (RRV) [2]; 20 μl oral at P1, RRV at P2, 3 weeks): 1
Odds Ratio (rhesus rotavirus (RRV) [2]; vs saline): 0.03

COC(=O)[C@]1(O)CC(O)[C@@H](NC(C)=O)C(C(O)[C@H](O)CO)O1 (some centres unmarked) [Neu5AcMe, N-Acetylneuraminic acid methyl ester]
pups survived [3]: 50%

CC(=O)N[C@H]1[C@H]([C@H](O)[C@H](O)CO)OC(O)(C(=O)O)C[C@@H]1O (some centres unmarked) [Neu5Ac, N-Acetylneuraminic acid]
side effect of the H5N1 vaccine candidate (still sick) ([4]; day 3, saline 87.5%): 12.5%
Odd Ratio ([4]; in vivo): 0.02
sick chickens recovered and looked normal ([4]; in vivo, po): 7/8
Not sick (number) (rhesus rotavirus (RRV) [1]): 10
Sick Rate(%) (rhesus rotavirus (RRV) [1]): 23.1%
Sick (number) (rhesus rotavirus (RRV) [1]): 3
Odds Ratio (rhesus rotavirus (RRV) [1]): 0.07

CCSSCC [Diethyl disulfide]
Not sick (number) [5, 6]: 5
Sick (number) [5, 6]: 1
Sick Rate(%) [5, 6]: 17%
Odds Ratio ([5]; vs saline): 0.04
